Values joined by “and” are separate entries in the source; they are usually repeats but may differ in a detail not shown here. Identical values can stand only once.
How the values were obtained:
[1] = target: T1, proteasome (beta 5, chymotrypsin-like activity) in HEK293T cell extract (Homo sapiens, UniProt P20618+P28074); assay: Proteasome activity in HEK293T cell extracts with beta 5-selective substrate Suc-Leu-Leu-Val-Tyr-AMC; format: biochemical
T1 construct: endogenous in cells; host or cells: HEK293T
Experimental: All enzyme assays described below were performed in the linear range of the assay, as determined from time-course studies. HEK293T cells were lysed by sonication in 50 mM TrisHCl buffer, pH 7.5, containing 40 mM KCl, 5 mM MgCl2, 0.5 mM ATP, and 1 mM DTT (Buffer 1).
To measure proteasome activity, a 1∶50 dilution of the cell extract was pre-incubated with the inhibitor and Buffer 1 for 30 min, followed by addition of 100 µM final concentration of the proteasome substrate succinyl-Leu-Leu-Val-Tyr-7-amino-4-methylcoumarin (Suc-Leu-Leu-Val-Tyr-AMC). After incubation at 37°C for 1 hour, proteasomal activity was quantified by fluorescence measurement of the substrate (380 nm excitation, 460 nm emission).
Figure 2 Inhibition of proteasome activity in HEK293T cells with various proteasome inhibitors. HEK293T cell extract was treated with increasing concentrations of the indicated compound for […] and incubation for 1 hour […]. Enzyme activity was determined by fluorescence measurement of AMC. The resulting activity is expressed as percent enzyme activity relative to the control reaction without inhibitor.

HEK293T cells = assay: Quantitative peptidomics (TMAB isotopic labels, LC-MS/MS) of inhibitor-treated HEK293T cells; format: cell-based, human
Method in brief: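 HEK293T or SH-SY5Y cells were exposed to proteasome or aminopeptidase inhibitors in serum-free medium at 37°C for 20 min, with inhibitor kept in washes (35 min total); DMSO 0.05% controls. Heat-extracted peptides were isotopically TMAB-labeled per group, pooled and quantified by LC-MS/MS.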

Compound: CN1C/C(=C/c2ccc(B(O)O)cc2)C(=O)/C(=C\c2ccc(B(O)O)cc2)C1 [AM114, reference compound]
- potency relative to clasto-Lactacystin β-lactone (fold less potent) ([1]; Suc-Leu-Leu-Val-Tyr-AMC): approximately 10 fold
- inhibition of proteasome activity at the highest concentration tested ([1]; highest concentration tested): ≤ 35%
- Relative Levels of peptide ADKVPKTAENFRAL (PPIA) (HEK293T cells; 1 uM, 35', HEK): 1.29 and 0.68 and 0.72
- Relative Levels of peptide AGAAVDELGKVLTPTQV (PEBP1) (HEK293T cells; 1 uM, 35', HEK): 1.53 and 0.85
- Relative Levels of peptide AKADGIVSKNF (RPS21) (HEK293T cells; 1 uM, 35', HEK): 0.95 and 0.82 and 0.98
- Relative Levels of peptide APIKVGDAIPAVEVF (PRDX5) (HEK293T cells; 1 uM, 35', HEK): 1.44 and 0.88
- Relative Levels of peptide APPTAYIDFARQK (TPI1) (HEK293T cells; 1 uM, 35', HEK): 1.67 and 1.17
- Relative Levels of peptide ASQPDVDGFLVGGASLKPEFVDIINAKQ (TPI1) (HEK293T cells; 1 uM, 35', HEK): 0.84 and 1.26 and 1.47
- Relative Levels of peptide AVDGEPLGRVSF (PPIA) (HEK293T cells; 1 uM, 35', HEK): 1.20 and 0.93 and 0.87
- Relative Levels of peptide Ac-AAPVDLELKKAFTEL (PFDN1) (HEK293T cells; 1 uM, 35', HEK): 1.09 and 0.91 and 0.97
- Relative Levels of peptide Ac-AEEGIAAGGVMDVNTALQEVLKT (RPS12) (HEK293T cells; 1 uM, 35', HEK): 0.90 and 1.10
- Relative Levels of peptide Ac-ANLERTFIAIKPDGV (NME2) (HEK293T cells; 1 uM, 35', HEK): 1.00 and 1.33
- Relative Levels of peptide Ac-ASKRALVIL (PARK7) (HEK293T cells; 1 uM, 35', HEK): 1.00
- Relative Levels of peptide Ac-ASKRALVILA (PARK7) (HEK293T cells; 1 uM, 35', HEK): 0.86 and 1.00
- Relative Levels of peptide Ac-MDTSRVQPIKL (RPS28) (HEK293T cells; 1 uM, 35', HEK): 0.94 and 1.00
- Relative Levels of peptide Ac-MDTSRVQPIKLAR (RPS28) (HEK293T cells; 1 uM, 35', HEK): 1.18 and 1.12 and 1.00
- Relative Levels of peptide Ac-MDTSRVQPIKLARVTKV (RPS28) (HEK293T cells; 1 uM, 35', HEK): 1.29 and 1.14
- Relative Levels of peptide Ac-SSEEGKLFVGGLNF (RBM3) (HEK293T cells; 1 uM, 35', HEK): 0.90 and 1.03
- Relative Levels of peptide Ac-SYGRPPPDVEGMTSLKVDNL (SRSF2) (HEK293T cells; 1 uM, 35', HEK): 0.91 and 1.06 and 1.09
- Relative Levels of peptide Ac-[…] (COX6B1) (HEK293T cells; 1 uM, 35', HEK): 1.03 and 0.97
- Relative Levels of peptide GESDDSILRLAKADGIVSKNF (RPS21) (HEK293T cells; 1 uM, 35', HEK): 1.09 and 0.90 and 0.85
- Relative Levels of peptide GFGDLKSPAGLQVL (EEF1B2) (HEK293T cells; 1 uM, 35', HEK): 1.74 and 1.18
- Relative Levels of peptide GISTPEELGLDKV (COX5A) (HEK293T cells; 1 uM, 35', HEK): 1.60 and 1.00
- Relative Levels of peptide KHTGPGILSM (PPIA) (HEK293T cells; 1 uM, 35', HEK): 1.13 and 1.00 and 0.92
- Relative Levels of peptide PGIVELPTLEEL (NDUFA8) (HEK293T cells; 1 uM, 35', HEK): 1.07 and 0.80 and 0.67
- Relative Levels of peptide SLGELIGTLNA (TPI1) (HEK293T cells; 1 uM, 35', HEK): 1.06 and 0.59 and 0.88
- Relative Levels of peptide VNPTVFFDI (PPIA) (HEK293T cells; 1 uM, 35', HEK): 1.20 and 0.67 and 0.80
- change in levels of intracellular peptides (peptidome) (HEK293T cells; HEK293T cells, 35 min, 2.5 µM MG132, 1 µM other inhibitors): did not produce a substantial change in levels of peptides
